In patent US20260070929A1, “METHODS AND COMPOSITIONS FOR MODULATING KRAS(G12D)” (Ranok Therapeutics (Hangzhou) Co. LTD., priority 2022, published 2026) one finds IC50 and EC50 data, which are given here for 10 molecules.

One assay addresses T1, KRAS(G12D)/SOS1 (Homo sapiens, UniProt P01116, G12D).
T1 construct: purchased Cisbio 63ADK000CB17PEH
As to the kind of experiment: KRAS(G12D)/SOS1 homogeneous time-resolved fluorescence (HTRF) assay. It counts as binding. Particulars: absence of GTP; 4° C., 3 hr. In outline:
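Disruption of the KRAS(G12D)/SOS1 pairing, in the absence of GTP, was read by time-resolved FRET after a 3 hr sealed incubation at 4 °C. Test compounds spanned 20 µM down to 1.02 nM in 3-fold steps. IC50 values correspond to half-maximal inhibition.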
(In general: TR-FRET usually uses a lanthanide donor and a delayed reading to cut background.)

The subject of assay [1] is ASPC1 pancreatic adenocarcinoma cells [homozygous G12D]. As to the kind of experiment: Cancer cell line proliferation (CellTiter-Glo), ASPC1. It counts as cell-based. Particulars: Homo sapiens, ASPC1, 72 h, 72 hr treatment, read-out: ASPC-1 CTG (EC50). As to the method:
The following cancer cell lines were employed: AGS gastric carcinoma [heterozygous G12D](ATCC, CRL-1739); A-427 lung carcinoma [heterozygous G12D](ATCC, HTB-53); ASPC1 pancreatic adenocarcinoma [homozygous G12D](ATCC, CRL-1682) and SW1990 pancreatic adenocarcinoma [homozygous G12D](ATCC CRL-2172). Cell lines were cultured essentially according to ATCC recommendations.
AGS, A-427, ASPC1, SW1990, and GP2D cells were plated in 96-well tissue culture plates at 4,000 cells/well and incubated at 37° C./5% CO2 for 72 hr in 100 μl of media. 3-fold serial dilutions of each test compound were prepared ranging from 20 μM to 1.02 nM. Each cell line was then treated with test compounds at various concentrations with a final concentration of 0.5% DMSO/well, and then incubated at 37° C./5% CO2 for 72 hr. 100 µl of CellTiter-Glo® Reagent (Promega Corporation, Madison, WI) was added to each well and processed according manufacturer's protocol. Results were analyzed and EC50 values were calculated in GraphPad 7 software.
(In general: Cellular ATP, detected with luciferase, serves as a proxy for viable cell number.)

For assay [2], the system named is A-427 lung carcinoma cells [heterozygous G12D]. As to the kind of experiment: Cancer cell line proliferation (CellTiter-Glo), A-427. The settings on record: Homo sapiens, A-427 cells, 72 hr treatment, read-out: A427 CTG (EC50). It counts as cell-based. In outline:
(§1)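 First, plate 4,000 cells per well and incubate 72 hr (37° C., 5% CO2). Next, add compound from a 3-fold dilution series spanning 20 μM to 1.02 nM, keeping DMSO at 0.5%. Then incubate another 72 hr, add CellTiter-Glo, and derive EC50.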

The subject of assay [3] is AGS gastric carcinoma cells [heterozygous G12D]. As to the kind of experiment: Cancer cell line proliferation (CellTiter-Glo), AGS. Particulars: Homo sapiens, 72 hr treatment, read-out: AGS CTG (EC50). It counts as cell-based. An outline of the steps:
as §1

Structures are written as SMILES.

In general, IC50 refers to the concentration that gives 50% inhibition. A word on the EC50: it is the concentration at which the effect is half-maximal.

T1 sequence (P01116 1-188 isoform P01116-2 G12D): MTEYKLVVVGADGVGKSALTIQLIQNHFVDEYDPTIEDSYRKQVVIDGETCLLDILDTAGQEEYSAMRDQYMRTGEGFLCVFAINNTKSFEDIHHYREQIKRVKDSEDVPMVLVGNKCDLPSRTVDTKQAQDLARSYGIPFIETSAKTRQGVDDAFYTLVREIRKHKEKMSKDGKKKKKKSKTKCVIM

The molecule `C#Cc1cccc2cccc(-c3ncc4c(N5CC6CCC(C5)N6)nc(OC[C@@H]5C[C@H](N6CCN(Cc7ccc(-n8c(O)nnc8-c8cc(C(C)C)c(O)cc8O)cc7)CC6)CN5C)nc4c3F)c12` [Compound 26] had an IC50 against KRAS(G12D)/SOS1 of under 100 nM. Moreover, the results for the EC50 in assay [1], in assay [2] and in assay [3] were over 1000 nM, 100 to 1000 nM and 100 to 1000 nM, respectively.

The molecule `C#Cc1cccc2cccc(-c3ncc4c(N5CC6CCC(C5)N6)nc(OCC5CC[C@H](CN6CCN(C(=O)C7CCN(Cc8ccc(-n9c(O)nnc9-c9cc(C(C)C)c(O)cc9O)cc8)CC7)CC6)N5C)nc4c3F)c12` (stereo partly shown) [Compound 27] showed an IC50 on KRAS(G12D)/SOS1 of under 100 nM. Moreover, the EC50 in assay [1] is 100 to 1000 nM; in assay [2] it was under 100 nM; in assay [3] it was under 100 nM.

Molecule `C#Cc1cccc2cccc(-c3ncc4c(N5CC6CCC(C5)N6)nc(OC[C@@H]5CC[C@H](CN6CCN(C(=O)C7CCN(Cc8ccc(-n9c(C(=O)NCC)nnc9-c9cc(C(C)C)c(O)cc9O)cc8)CC7)CC6)N5C)nc4c3F)c12` [Compound 28] showed an IC50 at KRAS(G12D)/SOS1 of under 100 nM. In addition, the values for the EC50 in assay [1], in assay [2] and in assay [3] were 100 to 1000 nM, under 100 nM and under 100 nM, respectively.

The molecule `CCNC(=O)c1nnc(-c2cc(C(C)C)c(O)cc2O)n1-c1ccc(CN2CCN([C@H]3C[C@@H](COc4nc(N5CC6CCC(C5)N6)c5cnc(-c6cccc7cccc(C)c67)c(F)c5n4)N(C)C3)CC2)cc1` [Compound 29] returned an IC50 at KRAS(G12D)/SOS1 of 100 to 1000 nM. In addition, the half-maximal effective concentration (EC50) in assay [1] was 100 to 1000 nM; in assay [2], under 100 nM; in assay [3], under 100 nM.

The molecule `CC(C)c1cc(-c2nnc(O)n2-c2ccc(CN3CCN([C@H]4C[C@@H](COc5nc(N6CC7CCC(C6)N7)c6cnc(-c7cccc8ccccc78)c(F)c6n5)N(C)C4)CC3)cc2)c(O)cc1O` [Compound 30] came in with an IC50 against KRAS(G12D)/SOS1 of over 1000 nM. For the same molecule, the EC50 was over 1000 nM in assay [1], 100 to 1000 nM in assay [2] and 100 to 1000 nM in assay [3].

Molecule `CCNC(=O)c1nnc(-c2cc(C(C)C)c(O)cc2O)n1-c1ccc(CN2CCN([C@H]3C[C@@H](COc4nc(N5CC6CCC(C5)N6)c5cnc(-c6cc(O)cc7ccccc67)c(F)c5n4)N(C)C3)CC2)cc1` [Compound 31] yielded an IC50 against KRAS(G12D)/SOS1 of under 100 nM. Besides, the EC50 in assay [1] is over 1000 nM; in assay [2] it was 100 to 1000 nM; in assay [3], 100 to 1000 nM.

With `CC(C)c1cc(-c2nnc(O)n2-c2ccc(CN3CCC(C(=O)C4CCN([C@H]5C[C@@H](COc6nc(N7CC8CCC(C7)N8)c7cnc(-c8cc(O)cc9ccccc89)c(F)c7n6)N(C)C5)CC4)CC3)cc2)c(O)cc1O` [Compound 32], on KRAS(G12D)/SOS1, the IC50 is under 100 nM. The EC50 in assay [1] was over 1000 nM; in assay [2], 100 to 1000 nM; in assay [3], 100 to 1000 nM.

On KRAS(G12D)/SOS1, `CC(C)c1cc(-c2nnc(O)n2-c2ccc(CN3CCN([C@H]4C[C@@H](COc5nc(N6CC7CCC(C6)N7)c6cnc(-c7cc(O)cc8ccccc78)c(F)c6n5)N(C)C4)CC3)cc2)c(O)cc1O` [Compound 33] had an IC50 of under 100 nM. In addition, the values for the EC50 in assay [1], in assay [2] and in assay [3] were over 1000 nM, over 1000 nM and 100 to 1000 nM, respectively.

On KRAS(G12D)/SOS1, `CCNC(=O)c1nnc(-c2cc(C(C)C)c(O)cc2O)n1-c1ccc(CN2CCN([C@H]3C[C@@H](COc4nc(N5CC6CCC(C5)N6)c5cnc(-c6cccc7ccccc67)c(F)c5n4)N(C)C3)CC2)cc1` [Compound 34] gave an IC50 of over 1000 nM. Besides, the EC50 is 100 to 1000 nM in assay [1], 100 to 1000 nM in assay [2] and under 100 nM in assay [3].

Regarding `C#Cc1cccc2cccc(-c3ncc4c(N5CC6CCC(C5)N6)nc(OC[C@@H]5C[C@H](N6CCN(Cc7ccc(-n8c(C(=O)NCC)nnc8-c8cc(C(C)C)c(O)cc8O)cc7)CC6)CN5C)nc4c3F)c12` [Compound 36], the IC50 against KRAS(G12D)/SOS1 was under 100 nM. For the same molecule, the EC50 was 100 to 1000 nM in assay [1], 100 to 1000 nM in assay [2] and under 100 nM in assay [3].
